# Measured values: publication PMC5218480 (PLoS ONE, 2017)
# Test system: MV-4-11 cells
# Test: Gene expression microarray analysis (Affymetrix PrimeView) and GSEA
# Assay type: cell-based, human
# Parameters: RFU PODN (11730768_x_at) / Fold change /veh PODN (11730768_x_at) / RFU LINC00158 (11744669_a_at) / Fold change /veh LINC00158 (11744669_a_at) / RFU DUSP10 (11751237_a_at) / Fold change /veh DUSP10 (11751237_a_at) / RFU ID3 (11757404_x_at) / Fold change /veh ID3 (11757404_x_at) / RFU PLEKHG5 (11737974_s_at) / Fold change /veh PLEKHG5 (11737974_s_at) / RFU LRRC4B (11730491_at) / Fold change /veh LRRC4B (11730491_at) / RFU GIMAP4 (11747438_a_at) / Fold change /veh GIMAP4 (11747438_a_at) / RFU KRT8 (11758183_x_at) / Fold change /veh KRT8 (11758183_x_at) / RFU CNN1 (11734310_a_at) / Fold change /veh CNN1 (11734310_a_at) / RFU VPS37D (11726825_at) / Fold change /veh VPS37D (11726825_at) / RFU C10orf10 (11716522_x_at) / Fold change /veh C10orf10 (11716522_x_at) / RFU KIR2DL2 /// KIR2DL4 /// KIR2DL5A /// KIR2DL5B /// KIR2DS1 /// KIR2DS2 /// KIR2DS3 /// KIR2DS4 /// KIR3DL3 /// KIR3DL3 /// KIR3DS1 (11738374_at) / Fold change /veh KIR2DL2 /// KIR2DL4 /// KIR2DL5A /// KIR2DL5B /// KIR2DS1 /// KIR2DS2 /// KIR2DS3 /// KIR2DS4 /// KIR3DL3 /// KIR3DL3 /// KIR3DS1 (11738374_at) / RFU C1QL1 (11718748_at) / Fold change /veh C1QL1 (11718748_at) / RFU TMPRSS4 (11747572_a_at) / Fold change /veh TMPRSS4 (11747572_a_at) / RFU HAMP (11756126_x_at) / Fold change /veh HAMP (11756126_x_at) / RFU RNFT2 (11725882_a_at) / Fold change /veh RNFT2 (11725882_a_at) / RFU NR4A2 (11747474_a_at) / Fold change /veh NR4A2 (11747474_a_at) / RFU ABCC12 (11746883_a_at) / Fold change /veh ABCC12 (11746883_a_at) / RFU TMEM136 (11760407_x_at) / Fold change /veh TMEM136 (11760407_x_at) / RFU CLDN22 /// WWC2 (11732394_at) / Fold change /veh CLDN22 /// WWC2 (11732394_at) / RFU HLA-DPB1 (11760878_x_at) / Fold change /veh HLA-DPB1 (11760878_x_at) / RFU SPINT1 (11716480_a_at) / Fold change /veh SPINT1 (11716480_a_at) / RFU GAP43 (11754022_s_at) / Fold change /veh GAP43 (11754022_s_at) / RFU A4GNT (11735810_at) / Fold change /veh A4GNT (11735810_at) / RFU PRB3 (11715151_x_at) / Fold change /veh PRB3 (11715151_x_at) / RFU TUBB4B (11761932_at) / Fold change /veh TUBB4B (11761932_at) / RFU CAPN14 (11732068_a_at) / Fold change /veh CAPN14 (11732068_a_at) / RFU TMCC2 (11721928_a_at) / Fold change /veh TMCC2 (11721928_a_at) / RFU IRGQ (11745062_a_at) / Fold change /veh IRGQ (11745062_a_at) / RFU FAM174B (11720279_a_at) / Fold change /veh FAM174B (11720279_a_at) / RFU TMPRSS4 (11748680_a_at) / Fold change /veh TMPRSS4 (11748680_a_at) / RFU FAM212B (11763350_a_at) / Fold change /veh FAM212B (11763350_a_at) / RFU PLEKHG5 (11743358_a_at) / Fold change /veh PLEKHG5 (11743358_a_at) / RFU ZSCAN30 (11745921_a_at) / Fold change /veh ZSCAN30 (11745921_a_at) / RFU CMKLR1 (11741424_a_at) / Fold change /veh CMKLR1 (11741424_a_at) / RFU LOC101060620 /// MAPK8IP1 (11723275_at) / Fold change /veh LOC101060620 /// MAPK8IP1 (11723275_at) / RFU SPTSSB (11747773_x_at) / Fold change /veh SPTSSB (11747773_x_at) / RFU PRSS12 (11739890_at) / Fold change /veh PRSS12 (11739890_at) / RFU BIN1 (11741810_x_at) / Fold change /veh BIN1 (11741810_x_at) / RFU WNT11 (11732464_a_at) / Fold change /veh WNT11 (11732464_a_at) / RFU C10orf10 (11716521_a_at) / Fold change /veh C10orf10 (11716521_a_at) / RFU C5orf56 (11738089_at) / Fold change /veh C5orf56 (11738089_at) / RFU CYB561 (11721691_x_at) / Fold change /veh CYB561 (11721691_x_at) / RFU ANKRD19P (11752326_a_at) / Fold change /veh ANKRD19P (11752326_a_at) / RFU OR2T12 /// OR2T33 /// OR2T8 (11738714_s_at) / Fold change /veh OR2T12 /// OR2T33 /// OR2T8 (11738714_s_at) / RFU VCAN (11748164_a_at) / Fold change /veh VCAN (11748164_a_at) / RFU JSRP1 (11732532_at) / Fold change /veh JSRP1 (11732532_at) / RFU KRTAP10-11 (11738290_x_at) / Fold change /veh KRTAP10-11 (11738290_x_at) / RFU MYO3A (11730013_a_at) / Fold change /veh MYO3A (11730013_a_at) / RFU EBF3 (11725865_a_at) / Fold change /veh EBF3 (11725865_a_at) / RFU CAMK2N1 (11719241_x_at) / Fold change /veh CAMK2N1 (11719241_x_at) / RFU C5orf56 (11738088_a_at) / Fold change /veh C5orf56 (11738088_a_at) / RFU OLFML3 (11715873_a_at) / Fold change /veh OLFML3 (11715873_a_at) / RFU LOC100653217 /// NTM (11731650_a_at) / Fold change /veh LOC100653217 /// NTM (11731650_a_at) / RFU MAPK11 (11762145_a_at) / Fold change /veh MAPK11 (11762145_a_at) / RFU FIZ1 (11724087_x_at) / Fold change /veh FIZ1 (11724087_x_at) / RFU OASL (11726364_x_at) / Fold change /veh OASL (11726364_x_at) / RFU SOX15 (11748057_x_at) / Fold change /veh SOX15 (11748057_x_at) / RFU CD79A (11719716_a_at) / Fold change /veh CD79A (11719716_a_at) / RFU HIST1H1D (11736915_at) / Fold change /veh HIST1H1D (11736915_at) / RFU CASKIN2 (11723855_a_at) / Fold change /veh CASKIN2 (11723855_a_at) / RFU LOC730098 (11760151_x_at) / Fold change /veh LOC730098 (11760151_x_at) / RFU OR4N2 (11742367_at) / Fold change /veh OR4N2 (11742367_at) / RFU PRRT2 (11749266_a_at) / Fold change /veh PRRT2 (11749266_a_at) / RFU SNX32 (11753110_a_at) / Fold change /veh SNX32 (11753110_a_at) / RFU CDHR5 (11726645_a_at) / Fold change /veh CDHR5 (11726645_a_at) / RFU RCAN1 (11760418_a_at) / Fold change /veh RCAN1 (11760418_a_at) / RFU FAM167A (11723789_a_at) / Fold change /veh FAM167A (11723789_a_at) / RFU FAM26E (11764081_at) / Fold change /veh FAM26E (11764081_at) / RFU ISYNA1 (11749810_s_at) / Fold change /veh ISYNA1 (11749810_s_at) / RFU ACY1 (11761880_at) / Fold change /veh ACY1 (11761880_at) / RFU 11764098_at / Fold change /veh 11764098_at / RFU SAMD14 (11745864_x_at) / Fold change /veh SAMD14 (11745864_x_at) / RFU NPB (11741838_a_at) / Fold change /veh NPB (11741838_a_at) / RFU TMPRSS6 (11731388_a_at) / Fold change /veh TMPRSS6 (11731388_a_at) / RFU KRTAP10-2 (11738614_at) / Fold change /veh KRTAP10-2 (11738614_at) / RFU ARHGAP8 /// PRR5-ARHGAP8 (11727945_x_at) / Fold change /veh ARHGAP8 /// PRR5-ARHGAP8 (11727945_x_at) / RFU KRTAP5-7 /// NADSYN1 (11734609_at) / Fold change /veh KRTAP5-7 /// NADSYN1 (11734609_at) / RFU RASL12 (11751679_a_at) / Fold change /veh RASL12 (11751679_a_at) / RFU CDKN2B (11736163_a_at) / Fold change /veh CDKN2B (11736163_a_at) / RFU PRF1 (11729649_at) / Fold change /veh PRF1 (11729649_at) / RFU, ZNF638 /// ZNF638-IT1 / Fold change vs veh, ZNF638 /// ZNF638-IT1 / RFU, PANK3 / Fold change vs veh, PANK3 / RFU, SH3YL1 / Fold change vs veh, SH3YL1 / RFU, ZEB2 / Fold change vs veh, ZEB2 / RFU, NRIP1 / Fold change vs veh, NRIP1 / RFU, PTTG1IP / Fold change vs veh, PTTG1IP / RFU, CAPN2 / Fold change vs veh, CAPN2 / RFU, MED14 / Fold change vs veh, MED14 / RFU, SNORA58 / Fold change vs veh, SNORA58 / RFU, C1orf63 / Fold change vs veh, C1orf63 / RFU, LRRFIP1 / Fold change vs veh, LRRFIP1 / RFU, NDUFAF7 / Fold change vs veh, NDUFAF7 / RFU, SLC12A2 / Fold change vs veh, SLC12A2 / RFU, IBTK / Fold change vs veh, IBTK / RFU, ESF1 / Fold change vs veh, ESF1 / Fold change vs veh, TMEM50B / RFU, TAOK1 / Fold change vs veh, TAOK1 / RFU, ACBD3 / Fold change vs veh, ACBD3 / RFU, TMA16 / Fold change vs veh, TMA16 / RFU, RWDD3 / Fold change vs veh, RWDD3 / RFU, BCAT1 / Fold change vs veh, BCAT1 / RFU, EDEM3 / Fold change vs veh, EDEM3 / RFU, TMEM33 / Fold change vs veh, TMEM33 / RFU, WDR75 / Fold change vs veh, WDR75 / RFU, AHCTF1 / Fold change vs veh, AHCTF1 / RFU, TFRC / Fold change vs veh, TFRC / RFU, ZDHHC17 / Fold change vs veh, ZDHHC17 / RFU, NOM1 / Fold change vs veh, NOM1 / RFU, ARL8B / Fold change vs veh, ARL8B / RFU, ZBTB11 / Fold change vs veh, ZBTB11 / RFU, TAMM41 / Fold change vs veh, TAMM41 / RFU, KIAA1704 /// LOC100996395 / Fold change vs veh, KIAA1704 /// LOC100996395 / RFU, ING1 / Fold change vs veh, ING1 / RFU, TRMT61B / Fold change vs veh, TRMT61B / RFU, FUBP3 / Fold change vs veh, FUBP3 / RFU, TP53 / Fold change vs veh, TP53 / RFU, TNKS2 / Fold change vs veh, TNKS2 / RFU, ZFP14 / Fold change vs veh, ZFP14 / RFU, ACTR2 / Fold change vs veh, ACTR2 / RFU, PPP3R1 / Fold change vs veh, PPP3R1 / RFU, PIK3R1 / Fold change vs veh, PIK3R1 / RFU, HNRNPA1 / Fold change vs veh, HNRNPA1 / RFU, RNF170 / Fold change vs veh, RNF170 / RFU, ZNF28 / Fold change vs veh, ZNF28 / RFU, RNGTT / Fold change vs veh, RNGTT / RFU, OGT / Fold change vs veh, OGT / RFU, BRD1 / Fold change vs veh, BRD1 / RFU, MARS / Fold change vs veh, MARS / RFU, ZNF655 / Fold change vs veh, ZNF655 / RFU, FAHD1 / Fold change vs veh, FAHD1 / RFU, BDP1 / Fold change vs veh, BDP1 / RFU, LRRCC1 / Fold change vs veh, LRRCC1 / RFU, ARID1A / Fold change vs veh, ARID1A / RFU, ZNF146 / Fold change vs veh, ZNF146 / RFU, ZNF330 / Fold change vs veh, ZNF330 / RFU, GPN3 / Fold change vs veh, GPN3 / RFU, C9orf123 / Fold change vs veh, C9orf123 / RFU, N4BP2L2 / Fold change vs veh, N4BP2L2 / RFU, ARFIP1 / Fold change vs veh, ARFIP1 / RFU, FAM179B / Fold change vs veh, FAM179B / RFU, BCL10 / Fold change vs veh, BCL10 / RFU, UHRF1BP1L / Fold change vs veh, UHRF1BP1L / RFU, BET1 / Fold change vs veh, BET1 / RFU, CNOT2 / Fold change vs veh, CNOT2 / RFU, ZNF268 / Fold change vs veh, ZNF268 / Fold change vs veh, ZNF507 / RFU, DGCR2 / Fold change vs veh, DGCR2 / RFU, WDSUB1 / Fold change vs veh, WDSUB1 / Fold change vs veh, HSP90B1 /// MIR3652 / RFU, ADSS / Fold change vs veh, ADSS / RFU, GK / Fold change vs veh, GK / RFU, ZNF148 / Fold change vs veh, ZNF148 / RFU, TAF9 / Fold change vs veh, TAF9 / RFU, SLC1A5 / Fold change vs veh, SLC1A5 / RFU, SLMO2 / Fold change vs veh, SLMO2 / RFU, ABCC4 / Fold change vs veh, ABCC4 / RFU, LOC101060439 /// RAP1B / Fold change vs veh, LOC101060439 /// RAP1B / RFU, RFX7 / Fold change vs veh, RFX7 / RFU, GTPBP10 / Fold change vs veh, GTPBP10 / RFU, CNEP1R1 / Fold change vs veh, CNEP1R1 / RFU, BIVM-ERCC5 /// ERCC5 / Fold change vs veh, BIVM-ERCC5 /// ERCC5 / RFU, ILF3 / Fold change vs veh, ILF3 / RFU 11762660_at / Fold change /veh 11762660_at / RFU VCAN (11757783_s_at) / Fold change /veh VCAN (11757783_s_at) / RFU DDX43 (11728927_at) / Fold change /veh DDX43 (11728927_at) / RFU KRT8 (11758188_x_at) / Fold change /veh KRT8 (11758188_x_at) / RFU NKD1 (11759106_at) / Fold change /veh NKD1 (11759106_at) / RFU SRD5A1 (11742802_a_at) / Fold change /veh SRD5A1 (11742802_a_at) / RFU TPSAB1 /// TPSB2 (11721975_s_at) / Fold change /veh TPSAB1 /// TPSB2 (11721975_s_at) / RFU GSTM3 (11746129_a_at) / Fold change /veh GSTM3 (11746129_a_at) / RFU IL23R (11737362_x_at) / Fold change /veh IL23R (11737362_x_at) / RFU TMEM51 (11727254_a_at) / Fold change /veh TMEM51 (11727254_a_at) / RFU PIWIL2 (11732686_x_at) / Fold change /veh PIWIL2 (11732686_x_at) / RFU ORM1 (11744905_x_at) / Fold change /veh ORM1 (11744905_x_at) / RFU CCDC152 (11743942_at) / Fold change /veh CCDC152 (11743942_at) / RFU ECM1 (11717891_a_at) / Fold change /veh ECM1 (11717891_a_at) / RFU IL23R (11748794_a_at) / Fold change /veh IL23R (11748794_a_at) / RFU TNFAIP8L3 (11732012_x_at) / Fold change /veh TNFAIP8L3 (11732012_x_at) / RFU MBOAT4 (11741988_at) / Fold change /veh MBOAT4 (11741988_at) / RFU 11764193_at / Fold change /veh 11764193_at / RFU TMEM53 (11763286_at) / Fold change /veh TMEM53 (11763286_at) / RFU MAGEB2 (11727129_at) / Fold change /veh MAGEB2 (11727129_at) / RFU TMEM200A (11744735_a_at) / Fold change /veh TMEM200A (11744735_a_at) / RFU CCDC152 (11751479_a_at) / Fold change /veh CCDC152 (11751479_a_at) / RFU FAM211A (11726209_a_at) / Fold change /veh FAM211A (11726209_a_at) / RFU RGS16 (11746705_a_at) / Fold change /veh RGS16 (11746705_a_at) / RFU VCAN (11755009_s_at) / Fold change /veh VCAN (11755009_s_at) / RFU RHOB (11743442_s_at) / Fold change /veh RHOB (11743442_s_at) / RFU RGS16 (11720943_a_at) / Fold change /veh RGS16 (11720943_a_at) / RFU RGS16 (11720944_at) / Fold change /veh RGS16 (11720944_at) / RFU, VPS4B / Fold change vs veh, VPS4B / RFU, CREB1 / Fold change vs veh, CREB1 / RFU, DNAJC13 / Fold change vs veh, DNAJC13 / RFU, GNAQ / Fold change vs veh, GNAQ / RFU, CDK5R1 / Fold change vs veh, CDK5R1 / RFU, ZRANB3 / Fold change vs veh, ZRANB3 / RFU, CUL4A / Fold change vs veh, CUL4A / RFU, CCNY / Fold change vs veh, CCNY / RFU, UFL1 / Fold change vs veh, UFL1 / RFU, COG3 / Fold change vs veh, COG3 / RFU, DIAPH2 / Fold change vs veh, DIAPH2 / RFU, SKA2 / Fold change vs veh, SKA2 / RFU, AFF3 / Fold change vs veh, AFF3 / RFU, LMF1 / Fold change vs veh, LMF1 / RFU, IPO11 / Fold change vs veh, IPO11 / RFU, DFFB / Fold change vs veh, DFFB / RFU, FOXP1 / Fold change vs veh, FOXP1 / RFU, CARD8 / Fold change vs veh, CARD8 / RFU, STRN3 / Fold change vs veh, STRN3 / RFU, ADK / Fold change vs veh, ADK / RFU, RASSF2 / Fold change vs veh, RASSF2 / RFU, WIPF1 / Fold change vs veh, WIPF1 / RFU, LARP1B / Fold change vs veh, LARP1B / RFU, RASA1 / Fold change vs veh, RASA1 / RFU, RB1 / Fold change vs veh, RB1 / RFU, PPFIA1 / Fold change vs veh, PPFIA1 / RFU, MAT2A / Fold change vs veh, MAT2A / RFU, CCT5 / Fold change vs veh, CCT5 / RFU, WDR92 / Fold change vs veh, WDR92 / RFU, CUX1 / Fold change vs veh, CUX1 / RFU, TTC7A / Fold change vs veh, TTC7A / RFU, TMEM135 / Fold change vs veh, TMEM135 / RFU, DEPTOR / Fold change vs veh, DEPTOR / RFU, CPM / Fold change vs veh, CPM / RFU, DNAJB6 / Fold change vs veh, DNAJB6 / RFU, CACNA2D3 / Fold change vs veh, CACNA2D3 / RFU, DTX4 / Fold change vs veh, DTX4 / RFU, TFCP2 / Fold change vs veh, TFCP2 / RFU, GMCL1 /// GMCL1P1 / Fold change vs veh, GMCL1 /// GMCL1P1 / RFU, AEBP2 / Fold change vs veh, AEBP2 / RFU, SNHG1 /// SNORD22 /// SNORD25 /// SNORD26 /// SNORD27 /// SNORD28 /// SNORD29 /// SNORD31 / Fold change vs veh, SNHG1 /// SNORD22 /// SNORD25 /// SNORD26 /// SNORD27 /// SNORD28 /// SNORD29 /// SNORD31 / Fold change (Aza/veh), C12orf56 (ProbeSet 11735607_a_at) / Fold change (ACY-1035/veh), C12orf56 (ProbeSet 11735607_a_at) / Fold change (Aza/veh), FGFR1OP (ProbeSet 11751329_s_at) / Fold change (ACY-1035/veh), FGFR1OP (ProbeSet 11751329_s_at) / Fold change (Aza/veh), VPS36 (ProbeSet 11739960_a_at) / Fold change (ACY-1035/veh), VPS36 (ProbeSet 11739960_a_at) / RFU SYPL1 (11715823_x_at) / Fold change /veh SYPL1 (11715823_x_at) / RFU IGFBP7 (11715501_s_at) / Fold change /veh IGFBP7 (11715501_s_at) / RFU REEP3 (11722064_at) / Fold change /veh REEP3 (11722064_at) / RFU IGLL1 (11728026_x_at) / Fold change /veh IGLL1 (11728026_x_at): dose or concentration left out as unconfirmed
# Conditions: ProbeSet 11763895_x_at; LIST B
smiles,measurement,value
Nc1ncn([C@@H]2O[C@H](CO)[C@@H](O)[C@H]2O)c(=O)n1 [azacitidine],"Fold change vs veh, SNORA58",1.03
